Assay results from US20170151226A1, “Treatment of Breast Cancer with Liposomal Irinotecan” (priority 2014, published 2017).

How the values were obtained:
TNBC LM2-4-luc cells = assay: TNBC LM2-4 mouse model of spontaneous metastasis; assay type: in vivo, SCID mice; conditions: nal-IRI 10 mg/kg salt, nonliposomal irinotecan 50 mg/kg salt, IV every 7 days
Text: 42 female SCID mice were inoculated with TNBC LM2-4-luc cells in their lower right inguinal mammary fat pad. […] Post primary tumor resection, bioluminescence imaging (BLI), (BLI, Xenogen, Perkin Elmer) was used to monitor metastasis formulation. […] Animals were monitored 2-3 times per week using BLI and at the study endpoint using a 1T MRI (M3, Aspect Imaging).

[1] = 5-day regimen; cited from earlier work

| SMILES | Metastatic burden, median bioluminescence flux (TNBC LM2-4-luc cells; day 12) | Median survival (TNBC LM2-4-luc cells) [days] | Maximum tolerated dose [1] |
| --- | --- | --- | --- |
| CCc1c2c(nc3ccc(OC(=O)N4CCC(N5CCCCC5)CC4)cc13)-c1cc3c(c(=O)n1C2)COC(=O)[C@]3(O)CC [irinotecan] | 2.1×10^9 | 14 |  |
| C[C@@H](O)[C@@H]1NC(=O)[C@H](CCCCN)NC(=O)[C@@H](Cc2c[nH]c3ccccc23)NC(=O)[C@H](Cc2ccccc2)NC(=O)[C@@H](NC(=O)[C@H](N)Cc2ccccc2)CSSC[C@@H](C(=O)N[C@H](CO)[C@@H](C)O)NC1=O [octreotide] |  |  | 2000 micrograms three times daily |
